We go through 13 molecules from patent USRE46558E1, “Compositions and methods to treat diseases characterized by cellular proliferation and angiogenesis” (Paloma Pharmaceuticals, Inc., priority 2005, dated 2017).

Like-named read-outs stand apart in the source and are kept apart here.

Experiment [1] deals with human umbilical vein endothelial cells, HUVECs (proliferating). The experiment is described as follows: HUVEC proliferation assay (proliferating, b-FGF or VEGF stimulated). Particulars: for inhibition: Homo sapiens, proliferating HUVEC, 48 h, read-out: HUVECp % inhibition. Set-up: inhibition: dose or concentration left out as unconfirmed. The class given is cell-based. The source says: (§1) Anti-tumor (anti-proliferative for cancer cells), anti-angiogenic activity (anti-proliferative for endothelial cells) measured in vitro as inhibition of proliferation binding to estrogen receptor alpha and beta HUVEC Proliferation. Inhibition of the proliferation of human umbilical vein endothelial cells, HUVECs, is shown as one measure of anti-angiogenic activity. HUVECS and the required media complements were purchased from Cascade Biologics (Portland, Oreg.) and the growth and maintenance of the cultures was as described by the manufacturer. The proliferation assay was carried out by seeding the HUVECs in 96-well plates at a density of 1,000 cells/well in complete medium. Following a 24 h plating period, the cells were starved for 24 h in 0.5% serum before being treated with SG (“Signal Gene” now “Palomid”) angiogenic inhibitors in the presence of 10 ng/ml b-FGF or dosing ranging presence of either b-FGF or VEGF in complete medium. After 48 h, cell number was determined using a calorimetric method as described by the supplier (Promega Corp., Madison, Wis.). The results were expressed as the percentage of the maximal b-FGF or VEGF response in the absence of angiogenic inhibitors. Non-proliferating endothelial cells were assayed by growing HUVECs to quiescence in 96-well plates and treating with angiogenic inhibitors for 48 h. Initially, 5,000 cells/well were seeded and confluence was achieved the next day. The plates were incubated another 24 h to ensure growth arrest before treatment with angiogenic inhibitors. Cell number was determined as outlined above.

Another experiment relates to HUVEC quiescent. Kind of experiment: Non-proliferating (quiescent) HUVEC assay. The experiment is classed as cell-based. Set-up: dose or concentration left out as unconfirmed. The settings on record: Homo sapiens, 48 h, read-out: HUVECq % inhibition.
Excerpt: as §1

For experiment [2], the system named is colon carcinoma cell line, HCT-116. The experiment is described as follows: Cancer cell line proliferation, colon. The settings on record: Homo sapiens. Set-up: dose or concentration left out as unconfirmed. The experiment is classed as cell-based. The source says: (§2) Cancer Cell Lines. Measurement of the inhibition of tumor cell growth is one measure of anti-cancer activity. Two human cancer cell lines were used to assess the effects of SG angiogenic inhibitors on the proliferation of these cells. The cell lines were MCF-7 breast cancer cells and the colon carcinoma cell line, HCT-116. All cell lines were obtained from Americans Type Tissue Culture (Manassas, Va.) and maintained in their respective media as described by the supplier. The proliferation studies were carried out essentially as described for the proliferating endothelial cells.

The subject of experiment [3] is MCF-7 breast cancer cells. The experiment is described as follows: Cancer cell line proliferation, breast. The experiment is classed as cell-based. Set-up: dose or concentration left out as unconfirmed. Particulars: Homo sapiens, MCF7.
Excerpt: as §2

For experiment [4], the target named is T1, human estrogen receptor beta (Homo sapiens, UniProt Q92731).
T1 construct: made in house; host or cells: rabbit reticulocyte lysate, coupled in vitro transcription-translation (Promega TNT kit)
Kind of experiment: ER binding assay, [3H]estradiol competition, ERb. Particulars: 0.5 nM [3H]estradiol, 4° C. overnight; na = no activity. The source says: ER Binding Assay. Derivatives which bind and transduce a signal through estrogen receptors would not be considered a positive activity as such an activity could enhance cancer growth as well as induce angiogenesis. Derivatives which either have little or no binding to estrogen receptors (“ER”) would be one desired activity. […] Human cDNAs encoding ERa and ERb were used as templates to express receptor proteins in vitro. The proteins were produced with rabbit reticulocyte lysates as supplied by Promega (TNT kit) that couples transcription and translation in a single reaction. The amount of template used in each reaction was determined empirically and expression was monitored in parallel reactions where [35S]methionine was incorporated into the receptor followed by gel electrophoresis and exposure to film. Binding reactions were carried out in […] final volumes in TEG buffer (10 mM tris, pH 7.5, 1.5 mM EDTA, 10% glycerol). […] The reactions were incubated at 4° C. overnight and bound E2 was quantified by adding […] dextran-coated charcoal. […] The maximum binding was determined by competing bound E2 with only the ethanol vehicle. […] Values for percent inhibition were calculated based on the maximal E2 binding. The data were plotted and Ki values calculated using the Prism Software. […]

[5] abbreviates: % of maximal b-FGF or VEGF response.

T1 sequence (Q92731 whole entry): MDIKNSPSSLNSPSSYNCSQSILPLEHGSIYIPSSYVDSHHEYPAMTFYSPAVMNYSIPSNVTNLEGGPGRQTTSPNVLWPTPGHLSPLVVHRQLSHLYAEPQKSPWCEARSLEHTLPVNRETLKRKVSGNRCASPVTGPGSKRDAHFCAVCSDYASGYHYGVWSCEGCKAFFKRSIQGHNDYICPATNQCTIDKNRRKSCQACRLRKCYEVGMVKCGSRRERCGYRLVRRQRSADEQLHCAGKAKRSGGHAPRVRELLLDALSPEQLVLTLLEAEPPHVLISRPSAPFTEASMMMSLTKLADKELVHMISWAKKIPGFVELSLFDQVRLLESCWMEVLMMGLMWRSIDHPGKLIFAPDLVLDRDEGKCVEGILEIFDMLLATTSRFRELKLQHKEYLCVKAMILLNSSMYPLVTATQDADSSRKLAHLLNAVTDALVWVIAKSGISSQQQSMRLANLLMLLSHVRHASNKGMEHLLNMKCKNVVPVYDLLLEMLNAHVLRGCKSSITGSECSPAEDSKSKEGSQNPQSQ

As a reminder, the inhibition is the drop in the measured response relative to a control, in per cent. On to `COc1cc2c(cc1OCc1ccccc1)oc(=O)c1cc(C(C)O)ccc12` (stereo not shown) [Palomid 393], for which the inhibition in experiment [1] (setting [5]) came out at 71%; with HUVEC quiescent, 21%; in experiment [2], 26%; in experiment [3], 11%.

`COc1ccc(COc2cc3oc(=O)c4cc(C(C)O)ccc4c3cc2OC)cc1` (stereo not shown) [Palomid 529]: the “inhibition of bFGF-stimulated endothelial cell proliferation” value in experiment [1] (FIG. 1A, bFGF-stimulated) is “inhibition”. Further, the “inhibition of VEGF-stimulated endothelial cell proliferation” value in experiment [1] (FIG. 1B, VEGF-stimulated) is on record as “inhibition”. For the same molecule, the inhibition in experiment [1] (setting [5]) is 113%; in experiment [1], 65%; in the experiment on HUVEC quiescent, 31%; in experiment [2], 20%; in experiment [3] it was 32%.

`COc1ccccc1COc1cc2oc(=O)c3cc(C(C)O)ccc3c2cc1OC` (stereo not shown) [Palomid 545]: the inhibition amounted to 100% in experiment [1] (setting [5]); 32% in experiment [1]; 22% in the experiment with HUVEC quiescent; 21% in experiment [2]; 17% in experiment [3].

Take `COc1cc(COc2cc3oc(=O)c4cc(C(C)=O)ccc4c3cc2OC)cc(OC)c1` [Palomid 546]: the inhibition came to 100% in experiment [1] (setting [5]), 18% in experiment [1], 23% in the experiment with HUVEC quiescent and 13% in experiment [3].

For `COc1cc(COc2cc3oc(=O)c4cc(C(C)O)ccc4c3cc2OC)cc(OC)c1` (stereo not shown) [Palomid 547], the inhibition in experiment [1] (setting [5]) was 106%; in experiment [1], 42%; with HUVEC quiescent, 25%; in experiment [2], 17%; in experiment [3], 35%.

For the molecule `CCc1ccc2c(c1)c(=O)oc1cc(OCc3ccc(OC)cc3)c(OC)cc12` [Palomid 550], the inhibition in experiment [1] (setting [5]) was 77%; in the experiment on HUVEC quiescent it was 14%; in experiment [2], under 10%; in experiment [3], 28%.

With `CCc1ccc2c(c1)c(=O)oc1cc(OCc3ccccc3OC)c(OC)cc12` [Palomid 551], the inhibition in experiment [1] (setting [5]) stood at 62%; in experiment [3] it was 25%.

For `COc1cc2c(cc1OCc1ccc(C)cc1)oc(=O)c1cc(C(C)=O)ccc12` [Palomid 559], the inhibition in experiment [1] (setting [5]) worked out at 96%; in experiment [1], 72%; in the experiment with HUVEC quiescent it was 35%; in experiment [3], 17%.

On to `CCc1ccc2c(c1)c(=O)oc1cc(OCc3ccc(Br)cc3)c(OC)cc12` [Palomid 560], for which, in experiment [1] (setting [5]), the inhibition came to 53%.

`COc1cc2c(cc1OCCc1ccccc1)oc(=O)c1cc(C(C)=O)ccc12` [Palomid 568]: the values for the inhibition (in experiment [1] (setting [5]); in the experiment with HUVEC quiescent; in experiment [3]) were 78%, 14% and under 10%, respectively. Also, the hERb % binding in experiment [4] is on record as 37%.

Regarding `CCc1ccc2c(c1)c(=O)oc1cc(OCc3ccc(C(=O)OC)cc3)c(OC)cc12` [Palomid 573], the inhibition in experiment [1] (setting [5]) was 145%; in the experiment on HUVEC quiescent, under 10%; in experiment [2], under 10%.

Consider `CCc1ccc2c(c1)c(=O)oc1cc(OCc3ccc(C(=O)c4ccccc4)cc3)c(OC)cc12` [Palomid 574], for which the inhibition is 74% in experiment [1] (setting [5]), 13% in experiment [1], 29% in the experiment with HUVEC quiescent and 24% in experiment [2].

As for `COc1cc2c(cc1OCc1ccc(C)cc1)oc(=O)c1cc(C(C)O)ccc12` (stereo not shown) [Palomid 575], the inhibition in experiment [1] (setting [5]) was found to be 104%; in experiment [1], 41%; in the experiment on HUVEC quiescent, 33%; in experiment [2], 10%; in experiment [3], 31%.
